Assay results from paper PMC7536232, “Saturation transfer difference NMR on the integral trimeric membrane transport protein GltPh determines cooperative substrate binding” (Scientific Reports, 2020).

Target: T1, GltPh (Pyrococcus horikoshii, UniProt O59010)
T1 construct: gene PH1295; WT GltPh, homotrimer, detergent-solubilised (DDM)
T1 sequence (O59010 1-425): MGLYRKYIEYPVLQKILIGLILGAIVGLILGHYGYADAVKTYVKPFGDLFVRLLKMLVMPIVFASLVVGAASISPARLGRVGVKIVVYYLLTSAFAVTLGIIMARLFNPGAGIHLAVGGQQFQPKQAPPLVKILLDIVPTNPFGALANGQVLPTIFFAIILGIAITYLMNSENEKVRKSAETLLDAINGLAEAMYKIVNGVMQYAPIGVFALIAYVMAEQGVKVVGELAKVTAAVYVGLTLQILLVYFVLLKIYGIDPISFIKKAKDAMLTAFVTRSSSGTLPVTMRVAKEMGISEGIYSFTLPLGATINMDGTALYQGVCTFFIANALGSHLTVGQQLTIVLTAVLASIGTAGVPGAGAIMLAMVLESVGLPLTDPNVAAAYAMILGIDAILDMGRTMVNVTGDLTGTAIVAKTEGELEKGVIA
Assay: STD NMR titration, γ-protons; DDM micelles ([…] in proteoliposomes)
Type: binding

In the case of `N[C@@H](CCC(=O)O)C(=O)O` [L-glutamate], the Kd is reported as 414 µM.
